Results as given in patent US20160058881A1, “PRODRUGS WITH PROLONGED ACTION” (INDIANA UNIVERSITY RESEARCH AND TECHNOLOGY CORPORATION, priority 2013, published 2016).
Where two headings read alike, the source gives them in different places. Starred links: 1 amine or outer side, 2 acyl side, 3 side chain; linkers in the order of their positions; H or OH if unused. Non-standard residues stand in square brackets, D forms with d. Residues, ends and D or L forms follow the SMILES beside them. Groups on a side chain read outwards from the residue. *: point of attachment. Phe(4-NH2) = Nc1ccc(C[C@H](N)C(=O)O)cc1; Arachidoyl = CCCCCCCCCCCCCCCCCCCC(=O)*; d(εLys) = N[C@H](CCCCN[*:1])C(=O)[*:2]; Aib = CC(C)(N)C(=O)O; Sar = CNCC(=O)O

Assays:
[1] = assay type: physicochemical; settings: buffer
Description: Preliminary analyses were performed with these crude peptides for an approximation of their relative conversion rates in Phosphate Buffered Saline (PBS) buffer (pH, 7.2) using high performance liquid chromatography (HPLC) and MALDI analysis. The crude peptide samples were dissolved in the PBS buffer at a concentration of 1 mg/mL. […] Aliquots of 100 μL were drawn out at various time intervals, cooled to room temperature and analyzed by HPLC. […] The peptides described above were incubated in PBS buffer or serum at 37° C. for up to 8 days. Samples were collected at different time points for PBS and plasma and half-life was determined. […] The peptides described above were incubated in PBS buffer or serum at 37° C. for up to 8 days. Samples were collected at different time points for PBS and plasma and half-life was determined. […] The shorter half-life seen when the acylated dipeptide was linked to […] might be due to a conformational change that facilitates cleavage when bound to plasma or alternatively to reduced detection of the acylated form when bound to plasma.

[2] = biological target: T1, GLP-1 receptor (Homo sapiens, UniProt P43220); assay: GLP-receptor luciferase bioassay of samples incubated in 20% human plasma (restored activity); assay type: cell-based; settings: 37° C.
Description: To explore the possible formation of DKP and simultaneous regeneration of the parent drug, the above-mentioned peptides were incubated in 20% human plasma at 37° C. for approximately 5 days. Samples were collected at different time points (0, 1, 2, and 5 days).
Target sequence in this assay (P43220 24-463): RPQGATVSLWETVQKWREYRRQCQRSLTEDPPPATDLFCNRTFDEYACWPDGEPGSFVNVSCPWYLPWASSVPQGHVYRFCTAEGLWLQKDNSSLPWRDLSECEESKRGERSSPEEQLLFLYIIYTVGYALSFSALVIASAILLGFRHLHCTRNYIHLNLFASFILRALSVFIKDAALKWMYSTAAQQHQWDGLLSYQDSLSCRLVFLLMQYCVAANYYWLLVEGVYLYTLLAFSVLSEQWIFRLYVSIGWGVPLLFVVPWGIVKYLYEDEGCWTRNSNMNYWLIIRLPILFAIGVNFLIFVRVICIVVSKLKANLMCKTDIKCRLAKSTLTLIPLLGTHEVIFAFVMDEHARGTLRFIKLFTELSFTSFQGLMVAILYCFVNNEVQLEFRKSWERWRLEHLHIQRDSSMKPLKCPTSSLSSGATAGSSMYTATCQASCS

[3] = assay type: in vitro ADME
Description: The peptides described above were incubated in PBS buffer or serum at 37° C. for up to 8 days. Samples were collected at different time points for PBS and plasma and half-life was determined. […] The peptides described above were incubated in PBS buffer or serum at 37° C. for up to 8 days. Samples were collected at different time points for PBS and plasma and half-life was determined. […] The shorter half-life seen when the acylated dipeptide was linked to […] might be due to a conformational change that facilitates cleavage when bound to plasma or alternatively to reduced detection of the acylated form when bound to plasma.

[4] = biological target: glucagon receptor (UniProt P47871); assay: cell-based or functional assay
[5] = biological target: glucagon receptor (UniProt P47871); assay: cell-based or functional assay; remark: listed apart in the source
[6] = biological target: T1, GLP-1 receptor; assay: cell-based or functional assay
Target sequence in this assay (P43220 24-463 limits assumed): as the sequence (P43220 24-463) above

Chain of glucagon receptor (P47871 26-477 limits assumed): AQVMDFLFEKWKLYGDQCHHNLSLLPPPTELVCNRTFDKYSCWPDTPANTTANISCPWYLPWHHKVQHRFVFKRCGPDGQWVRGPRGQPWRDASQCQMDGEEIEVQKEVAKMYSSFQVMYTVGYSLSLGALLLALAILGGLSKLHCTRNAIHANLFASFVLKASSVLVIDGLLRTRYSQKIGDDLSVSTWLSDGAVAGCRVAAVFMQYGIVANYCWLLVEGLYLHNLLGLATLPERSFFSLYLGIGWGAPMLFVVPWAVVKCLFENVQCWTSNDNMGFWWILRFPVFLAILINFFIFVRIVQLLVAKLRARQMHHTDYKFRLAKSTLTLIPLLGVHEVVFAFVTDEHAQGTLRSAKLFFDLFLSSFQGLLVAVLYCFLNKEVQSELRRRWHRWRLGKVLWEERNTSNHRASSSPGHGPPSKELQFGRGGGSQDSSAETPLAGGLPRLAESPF

With CCCCCCCCCCCCCCCCCCCC(=O)NCCCC[C@@H](N)C(=O)N(C)CC(=O)Nc1ccc(C[C@H](NC(=O)[C@H](CC(=O)O)NC(=O)[C@H](CO)NC(=O)[C@@H](NC(=O)[C@H](Cc2ccccc2)NC(=O)[C@@H](NC(=O)CNC(=O)[C@H](CCC(=O)O)NC(=O)C(C)(C)NC(=O)[C@@H](N)Cc2ccccc2)[C@@H](C)O)[C@@H](C)O)C(=O)N[C@@H](CO)C(=O)N[C@H](C(=O)N[C@@H](Cc2ccc(O)cc2)C(=O)N[C@@H](CC(C)C)C(=O)N[C@@H](CC(=O)O)C(=O)N[C@@H](CCCCN)C(=O)N[C@@H](CCC(N)=O)C(=O)N[C@@H](C)C(=O)N[C@@H](C)C(=O)NC(C)(C)C(=O)N[C@@H](CCC(=O)O)C(=O)N[C@@H](Cc2ccccc2)C(=O)N[C@H](C(=O)N[C@@H](CC(N)=O)C(=O)N[C@@H](Cc2c[nH]c3ccccc23)C(=O)N[C@@H](CC(C)C)C(=O)N[C@@H](CC(C)C)C(=O)N[C@@H](C)C(=O)NCC(=O)NCC(=O)N2CCC[C@H]2C(=O)N[C@@H](CO)C(=O)N[C@@H](CO)C(=O)NCC(=O)N[C@@H](C)C(=O)N2CCC[C@H]2C(=O)N2CCC[C@H]2C(=O)N2CCC[C@H]2C(=O)N[C@@H](CO)C(N)=O)C(C)C)[C@@H](C)CC)cc1 (H-F[Aib]EGTFTSD[Phe(4-NH2)]([Sar-d(εLys)-Arachidoyl])SIYLDKQAA[Aib]EFVNWLLAGGPSSGAPPPS-NH2; N-terminus and C-terminus assumed) the half-life [1] was roughly 24 h, the “Relative activity to GLP-1 standard” value ([2]; 0 d) was 30.9% and the “Restored (activity relative to parent peptide)” value ([2]; 0 d) was “Restored 36%”. For the same compound, the “Change of activity over the time points in plasma” value ([2]; 0 to 5 d) was “Activity Restored”, the “Relative activity to GLP-1 standard” value ([2]; 1 d) was 37.8% and the “Restored (activity relative to parent peptide)” value ([2]; 1 d) was “Restored 45%”. For the same compound, the “Relative activity to GLP-1 standard” value ([2]; 5 d) was 96.9% and the “Restored (activity relative to parent peptide)” value ([2]; 5 d) was “Restored 133%”.
CCCCCCCCCCCCCCCCCC(=O)NCCCC[C@@H](N)C(=O)N(C)CC(=O)NCCCC[C@H](NC(=O)[C@H](CC(=O)O)NC(=O)[C@H](CO)NC(=O)[C@@H](NC(=O)[C@H](Cc1ccccc1)NC(=O)[C@@H](NC(=O)CNC(=O)[C@H](CCC(=O)O)NC(=O)C(C)(C)NC(=O)[C@@H](N)Cc1ccccc1)[C@@H](C)O)[C@@H](C)O)C(=O)N[C@@H](CO)C(=O)N[C@H](C(=O)N[C@@H](Cc1ccc(O)cc1)C(=O)N[C@@H](CC(C)C)C(=O)N[C@@H](CC(=O)O)C(=O)N[C@@H](CCCCN)C(=O)N[C@@H](CCC(N)=O)C(=O)N[C@@H](C)C(=O)N[C@@H](C)C(=O)NC(C)(C)C(=O)N[C@@H](CCC(=O)O)C(=O)N[C@@H](Cc1ccccc1)C(=O)N[C@H](C(=O)N[C@@H](CC(N)=O)C(=O)N[C@@H](Cc1c[nH]c2ccccc12)C(=O)N[C@@H](CC(C)C)C(=O)N[C@@H](CC(C)C)C(=O)N[C@@H](C)C(=O)NCC(=O)NCC(=O)N1CCC[C@H]1C(=O)N[C@@H](CO)C(=O)N[C@@H](CO)C(=O)NCC(=O)N[C@@H](C)C(=O)N1CCC[C@H]1C(=O)N1CCC[C@H]1C(=O)N1CCC[C@H]1C(=O)N[C@@H](CO)C(=O)O)C(C)C)[C@@H](C)CC [Peptide E] showed a half-life [3] of roughly 168 h and a half-life [1] of roughly 168 h.
Compound CCCCCCCCCCCCCCCCCCCCCC(=O)NCCCC[C@@H](N)C(=O)N(C)CC(=O)NCCCC[C@H](NC(=O)[C@H](CO)NC(=O)[C@H](Cc1ccc(O)cc1)NC(=O)[C@H](CC(=O)O)NC(=O)[C@H](CO)NC(=O)[C@@H](NC(=O)[C@H](Cc1ccccc1)NC(=O)[C@@H](NC(=O)CNC(=O)[C@H](CCC(=O)O)NC(=O)C(C)(C)NC(=O)[C@@H](N)Cc1ccc(O)cc1)[C@@H](C)O)[C@@H](C)O)C(=O)N[C@@H](Cc1ccc(O)cc1)C(=O)N[C@@H](CC(C)C)C(=O)N[C@@H](CC(=O)O)C(=O)N[C@@H](CCCCN)C(=O)N[C@@H](CCC(N)=O)C(=O)N[C@@H](C)C(=O)N[C@@H](C)C(=O)NC(C)(C)C(=O)N[C@@H](CCC(=O)O)C(=O)N[C@@H](Cc1ccccc1)C(=O)N[C@H](C(=O)N[C@@H](CC(N)=O)C(=O)N[C@@H](Cc1c[nH]c2ccccc12)C(=O)N[C@@H](CC(C)C)C(=O)N[C@@H](CC(C)C)C(=O)N[C@@H](C)C(=O)NCC(=O)NCC(=O)N1CCC[C@H]1C(=O)N[C@@H](CO)C(=O)N[C@@H](CO)C(=O)NCC(=O)N[C@@H](C)C(=O)N1CCC[C@H]1C(=O)N1CCC[C@H]1C(=O)N1CCC[C@H]1C(=O)N[C@@H](CO)C(=O)O)C(C)C [Peptide F] has a half-life [3] of less than 24 h.
CCCCCCCCCCCCCCCCCCCCCC(=O)NCCCC[C@@H](N)C(=O)N(C)CC(=O)NCCCC[C@H](NC(=O)[C@H](CC(=O)O)NC(=O)[C@H](CC(C)C)NC(=O)[C@H](Cc1ccc(O)cc1)NC(=O)[C@@H](NC(=O)[C@H](CO)NC(=O)[C@H](Cc1ccc(O)cc1)NC(=O)[C@H](CC(=O)O)NC(=O)[C@H](CO)NC(=O)[C@@H](NC(=O)[C@H](Cc1ccccc1)NC(=O)[C@@H](NC(=O)CNC(=O)[C@H](CCC(=O)O)NC(=O)C(C)(C)NC(=O)[C@@H](N)Cc1ccc(O)cc1)[C@@H](C)O)[C@@H](C)O)[C@@H](C)CC)C(=O)N[C@@H](CCC(N)=O)C(=O)N[C@@H](C)C(=O)N[C@@H](C)C(=O)NC(C)(C)C(=O)N[C@@H](CCC(=O)O)C(=O)N[C@@H](Cc1ccccc1)C(=O)N[C@H](C(=O)N[C@@H](CC(N)=O)C(=O)N[C@@H](Cc1c[nH]c2ccccc12)C(=O)N[C@@H](CC(C)C)C(=O)N[C@@H](CC(C)C)C(=O)N[C@@H](C)C(=O)NCC(=O)NCC(=O)N1CCC[C@H]1C(=O)N[C@@H](CO)C(=O)N[C@@H](CO)C(=O)NCC(=O)N[C@@H](C)C(=O)N1CCC[C@H]1C(=O)N1CCC[C@H]1C(=O)N1CCC[C@H]1C(=O)N[C@@H](CO)C(=O)O)C(C)C [Peptide G] showed a half-life [3] greater than 168 h and a half-life [1] greater than 168 h.
For CCCCCCCCCCCCCCCCCCCCCC(=O)NCCCC[C@@H](N)C(=O)N(C)CC(=O)NCCCC[C@H](NC(=O)[C@H](CO)NC(=O)[C@@H]1CCCN1C(=O)[C@@H]1CCCN1C(=O)[C@@H]1CCCN1C(=O)[C@H](C)NC(=O)CNC(=O)[C@H](CO)NC(=O)[C@H](CO)NC(=O)[C@@H]1CCCN1C(=O)CNC(=O)CNC(=O)[C@H](C)NC(=O)[C@H](CC(C)C)NC(=O)[C@H](CC(C)C)NC(=O)[C@H](Cc1c[nH]c2ccccc12)NC(=O)[C@H](CC(N)=O)NC(=O)[C@@H](NC(=O)[C@H](Cc1ccccc1)NC(=O)[C@H](CCC(=O)O)NC(=O)C(C)(C)NC(=O)[C@H](C)NC(=O)[C@H](C)NC(=O)[C@H](CCC(N)=O)NC(=O)[C@H](CCCCN)NC(=O)[C@H](CC(=O)O)NC(=O)[C@H](CC(C)C)NC(=O)[C@H](Cc1ccc(O)cc1)NC(=O)[C@@H](NC(=O)[C@H](CO)NC(=O)[C@H](Cc1ccc(O)cc1)NC(=O)[C@H](CC(=O)O)NC(=O)[C@H](CO)NC(=O)[C@@H](NC(=O)[C@H](Cc1ccccc1)NC(=O)[C@@H](NC(=O)CNC(=O)[C@H](CCC(=O)O)NC(=O)C(C)(C)NC(=O)[C@@H](N)Cc1ccc(O)cc1)[C@@H](C)O)[C@@H](C)O)[C@@H](C)CC)C(C)C)C(=O)O [Peptide H], the half-life [3] was roughly 120 h and the half-life [1] was roughly 120 h.
Work on “E9, E16K20(lactam) glucagon(6-39) Cex peptide (Table 1 peptide 3)” yielded a Glu IC50 [4] of 0.042 µM, a Glucagon IC50 [5] of 0.042 µM and a GLP-1 EC50 [6] of 0.036 µM.
“[PLA6, E9, K12E16(Lactam)] glucagon(6-39) Cex peptide (Table 1 peptide 5)” gave a Glu IC50 [4] of 0.072 µM, a Glucagon IC50 [5] of 0.072 µM and a GLP-1 EC50 [6] of 0.006 µM.
